# Measured values published in the supplement of paper PMC10307832.
# Compound: Cn1c(=O)n(-c2ccc(C(C)(C)C#N)cc2)c2c3cc(-c4cnc5ccccc5c4)ccc3ncc21 [Dactolisib] + Nc1nc2[nH]cc(CCc3ccc(C(=O)N[C@@H](CCC(=O)O)C(=O)O)cc3)c2c(=O)[nH]1 [Pemetrexed] (partner 0.2 µM)
# Assay: relative viability (nuclei count vs DMSO), 5 days (fraction); higher = more cells survive
# Conditions: first compound 0.2 µM
# Outline: (§1)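 Lung cancer cell lines were seeded in 1536-well plates and dosed by pin tool the next day, with either a single drug or a fixed anchor-drug dose combined with five library-drug doses (not always all listed) spaced in √10 steps. Five days later, one step fixed the cells and stained their nuclei (final 0.05% Triton X-100, 1% formaldehyde, 1 ug/ml Hoechst), and nuclei were counted on 4× images. Relative viability is the nuclei count in treated wells divided by the count in vehicle wells, and each value is the median of duplicate plates.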
row,Cell Line,relative viability
1,EPLC-272H,0.314
2,NCI-H2228,0.144

# Compound: Cn1c(=O)n(-c2ccc(C(C)(C)C#N)cc2)c2c3cc(-c4cnc5ccccc5c4)ccc3ncc21 [Dactolisib] + CC1(C)CCC(c2ccc(Cl)cc2)=C(CN2CCN(c3ccc(C(=O)NS(=O)(=O)c4ccc(N[C@H](CCN5CCOCC5)CSc5ccccc5)c(S(=O)(=O)C(F)(F)F)c4)cc3)CC2)C1 [Navitoclax] (partner 0.5 µM)
# Assay: as above
# Conditions: first compound 0.002 µM
# Outline: as §1
row,Cell Line,relative viability
1,COR-L23,1.14
2,COR-L 105,0.754
3,LOU-NH91,0.547
4,ChaGo-K-1,0.92
5,NCI-H2170,0.58
6,NCI-H2405,0.727
7,HOP-62,1.24
8,LU99A,0.704
9,BEN,0.114
10,HARA,1.2
11,HCC-78,0.784
12,NCI-H322M,1.22
13,LCLC-97TM1,0.503
14,NCI-H2009,1.27
15,A-427,0.953
16,NCI-H441,0.851

row,Cell Line,relative viability
1,NCI-H1734,0.839
2,NCI-H460,1.21
3,NCI-H2347,0.928
4,SW 1573,1.09
5,NCI-H1395,0.834
6,201T,1.18
7,NCI-H1915,0.783
8,HCC-827,1.03
9,LXF-289,1.02
10,NCI-H23,0.934
11,NCI-H647,1.1
12,CAL-12T,1.38
13,NCI-H1651,1.13
14,EPLC-272H,1.31
15,NCI-H2228,0.875

# Same assay, conditions: first compound 0.006325 µM
row,Cell Line,relative viability
1,COR-L23,0.934
2,COR-L 105,0.759
3,LOU-NH91,0.6
4,ChaGo-K-1,1.03
5,NCI-H2170,0.512
6,NCI-H2405,0.935
7,HOP-62,1.08
8,LU99A,0.689
9,BEN,0.0698
10,HARA,1.13
11,HCC-78,0.791
12,NCI-H322M,1.17
13,LCLC-97TM1,0.33
14,NCI-H2009,1.12
15,A-427,0.951
16,NCI-H441,0.416

row,Cell Line,relative viability
1,NCI-H1734,0.647
2,NCI-H460,1.02
3,NCI-H2347,0.746
4,SW 1573,0.866
5,NCI-H1395,1.03
6,201T,1.22
7,NCI-H1915,0.759
8,HCC-827,1.02
9,LXF-289,0.932
10,NCI-H23,0.842
11,NCI-H647,0.964
12,CAL-12T,1.17
13,NCI-H1651,0.865
14,EPLC-272H,1.01
15,NCI-H2228,0.699

# Same assay, conditions: first compound 0.02 µM
row,Cell Line,relative viability
1,COR-L23,0.644
2,COR-L 105,1.02
3,LOU-NH91,0.646
4,ChaGo-K-1,0.975
5,NCI-H2170,0.473
6,NCI-H2405,0.831
7,HOP-62,1.06
8,LU99A,0.291
9,BEN,0.0623
10,HARA,1.18
11,HCC-78,0.543
12,NCI-H322M,1.16
13,LCLC-97TM1,0.3
14,NCI-H2009,1.1
15,A-427,0.915
16,NCI-H441,0.577

row,Cell Line,relative viability
1,NCI-H1734,0.743
2,NCI-H460,1.16
3,NCI-H2347,0.729
4,SW 1573,0.775
5,NCI-H1395,0.999
6,201T,1.14
7,NCI-H1915,0.773
8,HCC-827,1.06
9,LXF-289,1
10,NCI-H23,0.829
11,NCI-H647,0.685
12,CAL-12T,0.681
13,NCI-H1651,0.755
14,EPLC-272H,0.937
15,NCI-H2228,0.551

# Same assay, conditions: first compound 0.06325 µM
row,Cell Line,relative viability
1,COR-L23,0.238
2,COR-L 105,0.323
3,LOU-NH91,0.431
4,ChaGo-K-1,1.13
5,NCI-H2170,0.217
6,NCI-H2405,0.391
7,HOP-62,0.353
8,LU99A,0.173
9,BEN,0.0651
10,HARA,1.13
11,HCC-78,0.288
12,NCI-H322M,0.733
13,LCLC-97TM1,0.202
14,NCI-H2009,0.692
15,A-427,0.393
16,NCI-H441,0.237

row,Cell Line,relative viability
1,NCI-H1734,0.275
2,NCI-H460,0.169
3,NCI-H2347,0.308
4,SW 1573,0.252
5,NCI-H1395,0.821
6,201T,1.17
7,NCI-H1915,0.781
8,HCC-827,0.905
9,LXF-289,0.828
10,NCI-H23,0.412
11,NCI-H647,0.295
12,CAL-12T,0.264
13,NCI-H1651,0.317
14,EPLC-272H,0.592
15,NCI-H2228,0.241

# Same assay, conditions: first compound 0.2 µM
row,Cell Line,relative viability
1,COR-L23,0.188
2,COR-L 105,0.271
3,LOU-NH91,0.385
4,ChaGo-K-1,0.765
5,NCI-H2170,0.198
6,NCI-H2405,0.25
7,HOP-62,0.613
8,LU99A,0.185
9,BEN,0.0432
10,HARA,0.404
11,HCC-78,0.251
12,NCI-H322M,0.677
13,LCLC-97TM1,0.192
14,NCI-H2009,0.501
15,A-427,0.349
16,NCI-H441,0.303

row,Cell Line,relative viability
1,NCI-H1734,0.234
2,NCI-H460,0.0342
3,NCI-H2347,0.271
4,SW 1573,0.294
5,NCI-H1395,0.631
6,201T,0.943
7,NCI-H1915,0.484
8,HCC-827,0.687
9,LXF-289,0.571
10,NCI-H23,0.346
11,NCI-H647,0.348
12,CAL-12T,0.25
13,NCI-H1651,0.276
14,EPLC-272H,0.365
15,NCI-H2228,0.215

# Compound: C1CCC(CC1)N(CCNCCC2=C3C(=C(C=C2)O)NC(=O)CO3)C(=O)CCNCCC4=CC(=C(C=C4)Cl)Cl [AZ505] + CC1(C)CCC(c2ccc(Cl)cc2)=C(CN2CCN(c3ccc(C(=O)NS(=O)(=O)c4ccc(N[C@H](CCN5CCOCC5)CSc5ccccc5)c(S(=O)(=O)C(F)(F)F)c4)cc3)CC2)C1 [Navitoclax] (partner 0.5 µM)
# Assay: as above
# Conditions: first compound 0.08 µM
# Outline: as §1
row,Cell Line,relative viability
1,COR-L23,0.893
2,COR-L 105,0.772
3,LOU-NH91,0.612
4,ChaGo-K-1,1.02
5,NCI-H2170,0.541
6,NCI-H2405,0.449
7,HOP-62,0.946
8,LU99A,0.745
9,BEN,0.078
10,HARA,1.14
11,NCI-H322M,1.18
12,LCLC-97TM1,0.446
13,NCI-H2009,1.21
14,A-427,0.967
15,NCI-H441,0.691
16,NCI-H1734,0.802
17,NCI-H460,1.02
18,NCI-H2347,0.434
19,SW 1573,0.893
20,NCI-H1395,1.09
21,201T,1.19
22,NCI-H1915,0.749
23,HCC-827,1.03
24,LXF-289,0.891
25,NCI-H23,0.71
26,NCI-H647,1.02
27,CAL-12T,1.12
28,NCI-H1651,1.06
29,EPLC-272H,1.07
30,NCI-H2228,0.889

# Same assay, conditions: first compound 0.253 µM
row,Cell Line,relative viability
1,COR-L23,1.01
2,COR-L 105,0.692
3,LOU-NH91,0.694
4,ChaGo-K-1,0.856
5,NCI-H2170,0.665
6,NCI-H2405,0.483
7,HOP-62,1.1
8,LU99A,0.814
9,BEN,0.0642
10,HARA,1.12
11,HCC-78,0.852
12,NCI-H322M,1.1
13,LCLC-97TM1,0.521
14,NCI-H2009,1.14
15,A-427,0.942
16,NCI-H441,0.682
17,NCI-H1734,0.836
18,NCI-H460,1.19
19,NCI-H2347,0.549
20,SW 1573,1.03
21,NCI-H1395,1.06
22,201T,1.24
23,NCI-H1915,0.781
24,HCC-827,0.966
25,NCI-H647,1.22
26,CAL-12T,1.15
27,NCI-H1651,1.07
28,EPLC-272H,0.967
29,NCI-H2228,0.978

# Same assay, conditions: first compound 0.8 µM
row,Cell Line,relative viability
1,COR-L23,0.877
2,COR-L 105,0.83
3,LOU-NH91,0.657
4,ChaGo-K-1,1.04
5,NCI-H2170,0.531
6,NCI-H2405,0.621
7,HOP-62,0.972
8,LU99A,0.839
9,BEN,0.0775
10,HARA,1.12
11,HCC-78,0.832
12,NCI-H322M,1.16
13,LCLC-97TM1,0.902
14,NCI-H2009,1.1
15,A-427,0.919
16,NCI-H441,0.545

row,Cell Line,relative viability
1,NCI-H1734,0.755
2,NCI-H460,0.965
3,NCI-H2347,0.564
4,SW 1573,1.05
5,NCI-H1395,1.06
6,201T,1.17
7,NCI-H1915,0.733
8,HCC-827,0.967
9,LXF-289,0.919
10,NCI-H23,0.849
11,NCI-H647,1.14
12,CAL-12T,1.21
13,NCI-H1651,1.03
14,EPLC-272H,1.08
15,NCI-H2228,0.692

# Same assay, conditions: first compound 2.53 µM
row,Cell Line,relative viability
1,COR-L23,0.833
2,COR-L 105,0.844
3,LOU-NH91,0.657
4,ChaGo-K-1,1.14
5,NCI-H2170,0.666
6,NCI-H2405,0.524
7,HOP-62,1.03
8,LU99A,0.894
9,BEN,0.0686
10,HARA,1.07
11,HCC-78,0.919
12,NCI-H322M,1.1
13,LCLC-97TM1,0.735
14,NCI-H2009,1.19
15,A-427,0.949
16,NCI-H441,0.716

row,Cell Line,relative viability
1,NCI-H1734,0.736
2,NCI-H460,1.11
3,NCI-H2347,0.482
4,SW 1573,1.09
5,NCI-H1395,1.07
6,201T,1.18
7,NCI-H1915,0.783
8,HCC-827,0.963
9,LXF-289,0.881
10,NCI-H23,0.819
11,NCI-H647,0.97
12,CAL-12T,1.29
13,NCI-H1651,1.12
14,EPLC-272H,0.934
15,NCI-H2228,0.716

# Same assay, conditions: first compound 8 µM
row,Cell Line,relative viability
1,COR-L23,0.928
2,COR-L 105,0.778
3,LOU-NH91,0.804
4,ChaGo-K-1,1.07
5,NCI-H2170,0.651
6,NCI-H2405,0.696
7,HOP-62,0.992
8,LU99A,0.749
9,BEN,0.0829
10,HARA,1.08
11,HCC-78,0.818
12,NCI-H322M,1.28
13,LCLC-97TM1,0.694
14,NCI-H2009,1.12
15,A-427,0.802
16,NCI-H441,0.505

row,Cell Line,relative viability
1,NCI-H1734,0.774
2,NCI-H460,1.2
3,NCI-H2347,0.631
4,SW 1573,0.91
5,NCI-H1395,1.18
6,201T,1.19
7,NCI-H1915,0.763
8,HCC-827,0.98
9,LXF-289,0.935
10,NCI-H23,0.694
11,NCI-H647,1.32
12,CAL-12T,1.24
13,NCI-H1651,1.01
14,EPLC-272H,1.06
15,NCI-H2228,0.612
